Columns and labels:
[1] = tested on: HCV; conditions: 20 μm pyrrolidine-2 vs untreated cells, FIG. 7
[2] = tested on: HCV core protein; conditions: lipid droplet fractions; 20 μm pyrrolidine-2 vs untreated cells; FIG. 8A-C
Text: Standard ELISA and Western Blot protocols were used for the analysis of lipid droplet fractions of untreated cells and cells treated with 20 μm pyrrolidine-2.

[3] = tested on: DENV; conditions: Huh-7.5 cells, DV-R2A, 0, 5, 10 and 20 μM, added 42 h after transfection
Procedure: This example employs a standard bioassay for determining the effect of the cPLA2α inhibitor pyrrolidine-2 on the production of Huh-7.5 cells transfected with dengue virus RNA DV-R2A. The assay was performed according to standard protocols and materials were purchased from commercial suppliers and used according to respective manuals supplied therewith. Pyrrolidine-2 was added to the cells 42 h after transfection at the indicated final concentrations of 0, 5, 10 and 20 μM.

[4] = tested on: DENV; test: Infectivity of DENV, limiting dilution titration assay
Text: A standard limiting dilution titration assay was employed for assessing the relevance of cPLA2α activity for release of infectious DENV particles.

[5] = tested on: HCV; conditions: 20 μm pyrrolidine-2 vs untreated cells; FIG. 4B
Procedure: (§1) The assay was performed according to standard protocols and materials were purchased from commercial suppliers and used according to respective manuals supplied therewith.

[6] = 20 μm pyrrolidine-2 compared to DMSO; FIG. 5
Procedure: as §1

[7] = tested on: ApoE; conditions: Mock- and Jc1-transfected cells; 20 μm pyrrolidine-2; FIG. 9
Text: (§2) A standard ELISA protocol was employed for assessing the relevance of cPLA2α activity for release of lipoproteins carrying ApoB and ApoE.

[8] = tested on: ApoB; conditions: Mock- and Jc1-transfected cells; 20 μm pyrrolidine-2; FIG. 9
Text: as §2

[9] = tested on: HCV; conditions: Jc1-transfected cells, 0, 5, 10 and 20 μM, added 42 h after transfection
Procedure: This example employs a standard bioassay for determining the effect of the cPLA2α inhibitor pyrrolidine-2 on the production of Jc1-transfected cells. The general assay set up is shown in
FIG. 2. The assay was performed according to standard protocols and materials were purchased from commercial suppliers and used according to respective manuals supplied therewith. Pyrrolidine-2 was added to the cells 42 h after transfection at […] the indicated final concentrations of 0, 5, 10 and 20 μM.

Structure (SMILES): CC(C)CN(Cc1ccccc1-c1ccccc1)[C@@H]1C[C@@H](CNC(=O)C=Cc2ccc(C=C3SC(=O)NC3=O)cc2)N(C(=O)c2ccccc2C(=O)c2ccc(F)cc2F)C1.Cl [pyrrolidine-2, N-{(2S,4R)-4-(Biphenyl-2-ylmethyl-isobutyl-amino)-1-[2-(2,4-difluorobenzoyl)-benzoyl]-pyrrolidin-2-ylmethyl}-3-[4-(2,4-dioxothiazolidin-5-ylidenemethyl)-phenyl]acrylamide, HCl]
- lowering of intracellular virus titer [1]: about 10 fold
- reduction of extracellular virus titers [1]: 100 fold
- quantity of lipid droplet associated core protein [2]: reduced
- RNA replication of DENV ([3]; FIG. 11A): only slightly affected
- release of infectious DENV particles ([3]; FIG. 11B): potently inhibited in a dose-dependent manner
- inactivation of released infectious DENV particles ([4]; particles produced in the absence of the inhibitor, then treated with 20 μm pyrrolidine-2, FIG. 12B): does not inactivate released infectious particles
- reduction of the quantity of released infectious DENV particles ([4]; transfected Huh-7.5 cells treated with 20 μm pyrrolidine-2, FIG. 12A): more than 3 orders of magnitude
- viral entry [5]: does not influence viral entry
- cytotoxicity [6]: did not show any cytotoxicity
- reduction of the quantity of secreted ApoE [7]: more than 50%
- reduction of the quantity of secreted ApoB [8]: more than 50%
- RNA replication of HCV ([9]; FIG. 3A): not affected
- release of infectious HCV particles ([9]; FIG. 3B): potently inhibited in a dose-dependent manner

Reference: patent US20130209403A1, “USE OF INHIBITORS OF PHOSPHOLIPASE A2 FOR THE TREATMENT OR PREVENTION OF FLAVIVIRUS INFECTION” (Ruprecht-Karls-Universitaet, priority 2010, published 2013)
